Laboratory results published in patent publication US9927437B2, “Treating neurodegenerative disease” (THE BRIGHAM AND WOMEN'S HOSPITAL, INC., priority 2013, dated 2018).

Assays:
[1] = tested on: EAE NOD mice; assay: EAE in NOD mice, progressive phase (clinical score, histopathology, body weight); type: in vivo; conditions: NOD EAE; i.c.v. 1×10^7 IU lentivirus at day 35
[2] = tested on: B4GALT5/6; assay: Quantification of LacCer levels in the CNS (LC-MS/MS); type: in vivo, mouse; conditions: NOD EAE; i.c.v. 1×10^7 IU lentivirus at day 35, 10 days after injection
Protocol: Chemical standards of LacCer (d18:1/16:0) and LacCer (d18:1/18:0) were obtained from Avanti Polar Lipids. Quantification of LacCer (d18:1/16:0) and LacCer (d18:1/18:0) was achieved by LC-MS/MS analysis performed on an Agilent (Agilent Technologies, Santa Clara, Calif.) 6460 triple-quadrupole LC/MS/MS system. The fragments from the [M+H]^+ ions for LacCer and internal standard were subjected to collision induced dissociation and the two major types of fragment ions were monitored via electrospray ionization in the positive ion mode in multiple reaction monitoring (MRM) mode for each ion. These two MRM transitions corresponded to the loss of the neutral lactosyl moiety, and to the formation of the lactose ion. Specifically, the MRM transitions used for quantification for LacCer (d18:1/16:0) and LacCer(d18:1/18:0) were 862.5>[…] and 890.6>548.5, respectively. Secondary confirmatory MRM transitions for LacCer(d18:1/16:0) and LacCer(d18:1/18:0) of 862.5>264.3 and 890.6>264.3 were also monitored. Mass spectrometer parameter settings were gas temp (325° C.), gas flow (12 L/min), nebulizer (25 psi), sheath gas temp (400° C.), sheath gas flow (12 L/min), capillary voltage (4000v), and nozzle voltage (500v). Liquid chromatography conditions with an a Phenomenex Gemini C18 column 4.6×50 mm 5 μm particle size was used for separation. Chromatography method the following flow rate=0.4 mLs/min; solvent A=5 mM ammonium formate in 5% MeOH and 0.1% formic acid v/v/v; solvent B=80% 2-propanol, 15% methanol, 5% water and 0.1% formic acid (v/v/v/v). […] Standard curve mixture was analyzed at various concentrations between 0.10 nM to 3.3 μM in LacCer (d18:1/16:0) and an internal standard concentration of 1 μM. The lower limit of quantification was estimated at 1 nM and a R^2 of 0.9969 was obtained using linear regression analysis. […]
The brain tissue was weighed and homogenized using a Dounce homogenizer (VWR), in the extraction solvent using a Bligh and Dyer type liquid-liquid extraction. […] The dried sample was reconstituted in 100 μl of 2:1 chloroform-methanol, and analyzed using the HPLC-MS.

[3] = tested on: astrocytes; assay: mRNA expression in astrocytes isolated from EAE NOD mice (nCounter, qPCR); type: in vivo, mouse; conditions: NOD EAE; i.c.v. lentivirus at day 35, qPCR
Protocol: Mononuclear cells were isolated from the CNS as previously described^50 with minor modifications. Naïve and EAE mice were euthanatized, and then subjected to perfusion through the left ventricle with ice-cold sterile PBS. Brains and spinal cord were then removed, minced and enzymatically dissociated with 0.05% (w/v) collagenase type III (Worthington Biochemical), 0.5% Dispase II (Roche Applied Science), 40 μg/ml DNAse I, 20 mM HEPES in HBSS) for 30 min at 37 C to make a suspension of single cells. Enzymes were inactivated with 20 ml of Ca^2+/Mg^2+-free HBSS containing 2 mM EDTA and 20 mM HEPES. The digested tissue was triturated and passed through a […] cell strainer. Cells were centrifuged and resuspended in 30% isotonic Percoll (GE Healthcare) and 40 μg/ml DNAse I, underlined by 70% isotonic Percoll, and centrifuged at 1000×g at 4° C. for 25 min. Cells were collected from the 70%-30% interphase, and sorted by FACS Aria.
These purification procedures are based on previously described dissociation and purification protocols^50,51. Isolated CNS cells, were incubated with anti-Mouse CD16/CD32 for 15 min on ice to block the Fc receptors, and stained with fluorochrome-conjugated antibody for CD11b (M1/70), CD45(90), CD3 (145-2C11), CD4 (GK1.5), and Ly6C (HK1.4), and Biotion-conjugated GSL I—isolectin B4 (Vector labs), CD105 (N418), CD140a (APA5), CD11c (N418), F4/80 (BM8), O4 (O4, Miltenyi Biotec), and CD19 (eBio1D3), and un-conjugated antibodies recognizing mouse MOG (8-18C5, Millipore), O1 (O1), and Galactocerebroside (mGlaC, Millipore). All antibodies were from Ebioscience, unless otherwise mentioned (clone number, when relevant, in parentheses). Cells were washed and incubated PE-conjugated Streptavidin and R-Phycoerythrin AffiniPure F(ab′)2 fragment of Goat Anti-Mouse IgG+IgM (H+L) (Jackson ImmunoResearch laboratories) for 20 min at 4 C in the dark. Cells were washed, incubated with 7-AAD or Fixable Viability Dye eFluor® 450 (if cells were to be used for intracellular staining), for exclusion of dead cells (FIG. S3A), and sorted as following. Microglia were sorted as CD11b^+ cells with low CD45 expression and low Ly6C (CD11b+/CD45^low/Ly6C^low), while the inflammatory monocytes were considered as CD11b^+/Ly6C^high 52. T-cells were sorted as CD3^+CD4^+ cells. Astrocytes were isolated following the depletion of lymphocytes, microglia, monocytes (FIG. S3B), and oligodendrocytes, and lymphocytes (T-cells, B-cells, and NK cells) (FIG. S3C). […] We confirmed that we had isolated a relatively pure populations of astrocytes by qPCR for the astrocyte markers^44,51 gfap, aldh1l1 and aqp4, and found them to be exclusively expressed in the astrocyte fraction (in a similar expression pattern to that of GFP^+ astrocytes sorted from Tg(GFP-hGFAP) FVB transgenic mice^49) (FIG. S3E). We used an additional cohort of markers to explore for presence of immune cells [microglia/monocytes cells—itgam (CD11b), and emr1 (F4/80), dendritic cells—itgax (CD11c), NK cells—Klrb1c (Nk1.1), T-cells—cd3, and B-cells—cd19], oligodendrocytes (mog, mbp), and neurons (syt1, snap25) (FIG. S3F, G).
100-200 ng of total RNA was hybridized with reporter and capture probes for nCounter Gene Expression code sets (Mouse Inflammation Kit, or a custom made astrocyte-oriented probe set (Table S1)), according to manufacturer's instructions (NanoString Technologies). Data were normalized to spiked positive controls and housekeeping genes (nSolver Analysis system). Transcript counts less than the mean of the negative control transcripts plus 2 standard deviations for each sample were considered background.
Nanostring generated gene expression data were analyzed by use of the Expander 6.06 platform^53. Genes were clustered using the unbiased CLICK algorithm, and each cluster was further analyzed for enrichments in transcription factors binding sites (promoter analysis).

[4] = tested on: C8-D30 astrocytes; assay: In vitro knock-down with shRNA in C8-D30 astrocytes, LPS/IFNγ activation; type: cell-based, mouse; conditions: lentivirus-delivered shRNA

Substance: shB4galt5: lentivirus-delivered shRNA against b4galt5 (TRCN0000018782; SEQ ID NO:2) (guide GCAGCCTGAATGACTCAGATTCTCGAGAATCTGAGTCATTCAGGCTGC)
- EAE disease progression [1]: but not of b4galt5, suppressed disease progression
- CNS LacCer levels [2]: but not of b4galt5, led to a significant decrease of CNS LacCer levels
- b4galt6 and b4galt5 expression in astrocytes [3]: astrocyte-specific knock-down
- up-regulation of h2-Aa, ccl5 and cxcl10 expression [4]: did not affect the expression
